Assay results reported in patent publication US10647723B2, “Thiochromene type compound and use thereof” (SOGANG UNIVERSITY RESEARCH FOUNDATION, priority 2015, dated 2020).

Experiments:
[1] = Solubility comparison: cloud point on adding water to a DMSO solution; type: physicochemical; details: upon dissolution in DMSO
[2] = UV-Vis absorption spectrum; type: physicochemical; details: compared to compounds 1 and 2; FIG. 5

Structure (SMILES): Cn1c2c(c3ccccc31)C(SCCC(=O)ON1C(=O)CCC1=O)Sc1ccccc1-2 (stereo not drawn) [3a, 2,5-Dioxopyrrolidin-1-yl 3-((11-methyl-6,11-dihydrothiochromeno[4,3-b]indol-6-yl)thio)propanoate]
- water added at which a cloud point formed [1]: 30%
- absorbance at 355 nm [2]: high absorbance
- melting point: 90 to 96 °C (dec.)

Structure (SMILES): CCn1c2c(c3ccccc31)C(SCCC(=O)ON1C(=O)CCC1=O)Sc1ccccc1-2 (stereo not drawn) [3b, 2,5-Dioxopyrrolidin-1-yl 3-((11-ethyl-6,11-dihydrothiochromeno[4,3-b]indol-6-yl)thio)propanoate]
- melting point: 82 to 87 °C (dec.)

Structure (SMILES): CCCn1c2c(c3ccccc31)C(SCCC(=O)ON1C(=O)CCC1=O)Sc1ccccc1-2 (stereo not drawn) [3c, 2,5-Dioxopyrrolidin-1-yl 3-((11-propyl-6,11-dihydrothiochromeno[4,3-b]indol-6-yl)thio)propanoate]
- melting point: 77 to 82 °C (dec.)

Structure (SMILES): CCCCn1c2c(c3ccccc31)C(SCCC(=O)ON1C(=O)CCC1=O)Sc1ccccc1-2 (stereo not drawn) [3d, 2,5-Dioxopyrrolidin-1-yl 3-((11-butyl-6, 11-dihydrothiochromeno[4,3-b]indol-6-yl)thio)propanoate]
- melting point: 76 to 81 °C (dec.)
